SMILES strings stand for the structures.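 These data come from cells grown in 96-well plates and exposed to compound for 48 hours at five concentrations. The concentration for 50% growth inhibition is given as GI50. TGI: total growth inhibition.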

Some test systems named below: MOLT-4 leukemia; RPMI-8226 leukemia; BT-549 breast; ACHN renal; UACC-257 melanoma; MCF7 breast; HS 578T breast; CAKI-1 renal; MDA-MB-435; HL-60(TB) leukemia.
Common to all, as to experiment: inhibition of tumour cell growth, NCI panel, 48 h

Consider `C[N+](C)(C)c1nc(N)nc2c1ncn2C1OC(CO)C(O)C1O` (centres undefined), for which the TGI in the test with MOLT-4 leukemia, with RPMI-8226 leukemia, with BT-549 breast, in the test on ACHN renal, in the test on UACC-257 melanoma and in the test on MCF7 breast was above 100 µM each time. Besides, the TGI in the test with HS 578T breast, in the test with CAKI-1 renal and in the test on MDA-MB-435 was above 100 µM each time.
As for `CCCCCCCCCC[C@@H](O)[C@H]1CC[C@@H]([C@H]2CC[C@H]([C@H](O)CCCCCCCCCC[C@@H]3CC(CC(C)=O)C(=O)O3)O2)O1` (some centres undefined), the GI50 in the test with MOLT-4 leukemia was 6.72 µM; with RPMI-8226 leukemia it was 5.03 µM; in the test with BT-549 breast, 23.7 µM; in the test with ACHN renal it was 14.6 µM; in the test on UACC-257 melanoma, 3.23 µM; in the test with MCF7 breast, 19.8 µM. Further, the TGI was 40.6 µM with MOLT-4 leukemia; 26.2 µM in the test on RPMI-8226 leukemia; 66.3 µM in the test with UACC-257 melanoma; above 100 µM in the test on MCF7 breast; 3.78 µM in the test on HS 578T breast; above 100 µM in the test with CAKI-1 renal. In the test with MDA-MB-435, this compound returned a TGI above 100 µM.
Consider `OCC(CO)CC1COc2ccccc2O1` (centres undefined), for which the TGI with MOLT-4 leukemia, in the test on RPMI-8226 leukemia, with ACHN renal, in the test on HL-60(TB) leukemia, with MCF7 breast and with HS 578T breast was above 10 µM throughout. In addition, the TGI in the test on CAKI-1 renal and in the test with MDA-MB-435 was above 10 µM throughout.
For the compound `CN(c1ccccc1)c1c(-c2ccccc2)c(=O)oc2c1ccc1occc12`, the TGI with MOLT-4 leukemia, with UACC-257 melanoma, with HL-60(TB) leukemia, in the test on MCF7 breast and in the test with CAKI-1 renal was above 100 µM each time.
For the compound `N#Cc1nc(Cc2cccs2)oc1N`, the TGI in the test with MOLT-4 leukemia, with RPMI-8226 leukemia, in the test with ACHN renal, in the test on UACC-257 melanoma, in the test on HL-60(TB) leukemia and in the test on MCF7 breast was above 100 µM throughout. In addition, the TGI in the test with HS 578T breast, with CAKI-1 renal and with MDA-MB-435 was above 100 µM throughout.
As to `O/N=C1/CCCCC1NO` (centres undefined), the TGI in the test on MOLT-4 leukemia, in the test on RPMI-8226 leukemia, in the test with ACHN renal, in the test with UACC-257 melanoma, with HL-60(TB) leukemia and in the test on MCF7 breast was above 100 µM each time. The TGI in the test on HS 578T breast, in the test with CAKI-1 renal and in the test on MDA-MB-435 was above 100 µM throughout.
On to `COc1cccc2c1C(=O)c1c(O)c3c(c(O)c1C2=O)C[C@](O)(C(=O)CO)CC3OC1CC(N)C(OC2CCCCO2)C(C)O1` (some centres undefined), for which the TGI in the test on MOLT-4 leukemia was 0.0342 µM; in the test with RPMI-8226 leukemia, 5.12 µM; in the test on UACC-257 melanoma, 2.5 µM; in the test on HL-60(TB) leukemia, 0.294 µM; in the test with MCF7 breast, 12.1 µM; in the test on CAKI-1 renal, 18.2 µM.
Take `Brc1ccc2[nH]cc(-c3nc(-c4c[nH]c5ccncc45)cs3)c2c1`: the GI50 in the test with RPMI-8226 leukemia is 2.48 µM; in the test on ACHN renal, 1.77 µM; with UACC-257 melanoma, 1.92 µM; in the test on MDA-MB-435 it was 1.66 µM. The TGI in the test on RPMI-8226 leukemia stood at 5.23 µM; in the test on ACHN renal, 3.16 µM; with UACC-257 melanoma it was 3.46 µM; with MDA-MB-435 it was 3.06 µM.
On to `CC(=O)Nc1oc(C)nc1C#N`, for which the TGI with MOLT-4 leukemia, in the test on RPMI-8226 leukemia, in the test on ACHN renal, with UACC-257 melanoma, with HL-60(TB) leukemia and with MCF7 breast was above 100 µM throughout. Moreover, the TGI with HS 578T breast, in the test with CAKI-1 renal and in the test on MDA-MB-435 was above 100 µM throughout.
Consider `O=C(c1ccccc1)c1ccc2c(c1)N=C(c1ccc(Cl)c(Cl)c1)CC(c1ccc3ccccc3c1)N2` (centres undefined), for which the TGI with MOLT-4 leukemia, in the test with RPMI-8226 leukemia, with ACHN renal, with UACC-257 melanoma, with HL-60(TB) leukemia and in the test on CAKI-1 renal was above 100 µM in each case.
As to `Cn1c(=O)c2[nH]cnc2n(C)c1=O`, the TGI with MOLT-4 leukemia, with RPMI-8226 leukemia, in the test with ACHN renal, with UACC-257 melanoma, with HL-60(TB) leukemia and with MCF7 breast was above 100 µM throughout. The TGI with HS 578T breast and with CAKI-1 renal was above 100 µM throughout.
As for `CC(=O)N/N=C1\NN(C(C)=O)C2(S1)C(=O)Nc1ccccc12` (centres undefined), the TGI in the test on MOLT-4 leukemia, in the test on RPMI-8226 leukemia, with ACHN renal, with HL-60(TB) leukemia, in the test with MCF7 breast and in the test with CAKI-1 renal was above 100 µM in each case. In the test on MDA-MB-435, this compound returned a TGI above 100 µM.
As to `c1csc(-c2csc(-c3cccs3)c2)c1`, the TGI is 89.2 µM in the test on MOLT-4 leukemia; 57.1 µM in the test with RPMI-8226 leukemia; above 100 µM in the test with ACHN renal; above 100 µM with UACC-257 melanoma; above 100 µM with HL-60(TB) leukemia; 75.2 µM with MCF7 breast. Moreover, the TGI in the test on HS 578T breast, in the test on CAKI-1 renal and in the test with MDA-MB-435 was above 100 µM in each case.
With `COc1cccc(C2c3cc4c(cc3OC(N3CCOCC3)C2C)OCO4)c1` (centres undefined), the TGI with MOLT-4 leukemia is 17.6 µM; in the test on RPMI-8226 leukemia it was above 100 µM; with BT-549 breast, 22.4 µM; in the test with ACHN renal, above 100 µM; with UACC-257 melanoma, above 100 µM; in the test on MCF7 breast, 46.4 µM. In the test with HS 578T breast, this compound registered a TGI of 60.1 µM.
`Cc1cccc(-c2cc(=O)c3c(C)ccnc3[nH]2)c1`: the TGI is above 100 µM in the test with MOLT-4 leukemia; 26.1 µM in the test on RPMI-8226 leukemia; above 100 µM in the test on BT-549 breast; above 100 µM in the test with ACHN renal; 0.703 µM in the test with HL-60(TB) leukemia; above 42.2 µM with MCF7 breast. The TGI with HS 578T breast and in the test on CAKI-1 renal was above 100 µM in each case.
Take `CC(=O)Oc1ccc(-c2c(OC(C)=O)c(OC(C)=O)c(-c3ccc(OC(C)=O)c(OC(C)=O)c3)c(OC(C)=O)c2OC(C)=O)cc1`: the TGI was determined as 44.3 µM with MOLT-4 leukemia; 35.4 µM in the test with RPMI-8226 leukemia; 30.8 µM in the test with ACHN renal; 29.1 µM in the test with UACC-257 melanoma; 43.7 µM in the test on HL-60(TB) leukemia; 50.6 µM in the test with MCF7 breast. For the same compound, the TGI stood at 51.6 µM in the test with CAKI-1 renal and 31.7 µM in the test with MDA-MB-435.

These data come from PubChem BioAssay (NCI).
